{"source": "PubChem BioAssay (NCI)", "experiment_in_all_cases": "DTP human tumour cell line panel, 48 h", "key": {"HCT-15 colon": {"test_system": "HCT-15 colon"}, "OVCAR-4 ovarian": {"test_system": "OVCAR-4 ovarian"}, "SK-MEL-2 melanoma": {"test_system": "SK-MEL-2 melanoma"}, "SF-295 CNS": {"test_system": "SF-295 CNS"}, "CCRF-CEM leukemia": {"test_system": "CCRF-CEM leukemia"}, "MDA-MB-231 breast": {"test_system": "MDA-MB-231 breast"}, "SK-MEL-28 melanoma": {"test_system": "SK-MEL-28 melanoma"}, "786-0 renal": {"test_system": "786-0 renal"}, "MOLT-4 leukemia": {"test_system": "MOLT-4 leukemia"}, "UACC-62 melanoma": {"test_system": "UACC-62 melanoma"}, "ACHN renal": {"test_system": "ACHN renal"}, "EKVX NSCLC": {"test_system": "EKVX NSCLC"}, "DU-145 prostate": {"test_system": "DU-145 prostate"}, "MALME-3M melanoma": {"test_system": "MALME-3M melanoma"}, "SN12C renal": {"test_system": "SN12C renal"}, "SK-OV-3 ovarian": {"test_system": "SK-OV-3 ovarian"}, "SR leukemia": {"test_system": "SR leukemia"}, "COLO 205 colon": {"test_system": "COLO 205 colon"}, "M14 melanoma": {"test_system": "M14 melanoma"}, "K-562 leukemia": {"test_system": "K-562 leukemia"}, "NCI-H226 lung": {"test_system": "NCI-H226 lung"}, "HCT-116 colon": {"test_system": "HCT-116 colon"}, "UACC-257 melanoma": {"test_system": "UACC-257 melanoma"}, "T-47D breast": {"test_system": "T-47D breast"}, "NCI-H460 lung": {"test_system": "NCI-H460 lung"}, "OVCAR-8 ovarian": {"test_system": "OVCAR-8 ovarian"}, "U251 CNS": {"test_system": "U251 CNS"}, "HOP-62 NSCLC": {"test_system": "HOP-62 NSCLC"}}, "note": "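Five concentrations, 48 hours, 96-well plates. GI50 marks 50% less growth. TGI: concentration producing complete growth inhibition.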"}
{"smiles": "COc1ccc(C(=O)COc2cccc(/C=C3\\CSc4ccc(C)cc4C3=O)c2)cc1", "values": [{"measurement": "GI50", "setting": "HCT-15 colon", "result": 11.7, "unit": "µM"}, {"measurement": "TGI", "setting": "HCT-15 colon", "result": "> 100", "unit": "µM"}, {"measurement": "GI50", "setting": "OVCAR-4 ovarian", "result": 7.26, "unit": "µM"}, {"measurement": "TGI", "setting": "OVCAR-4 ovarian", "result": "> 100", "unit": "µM"}, {"measurement": "GI50", "setting": "SK-MEL-2 melanoma", "result": 15.9, "unit": "µM"}, {"measurement": "TGI", "setting": "SK-MEL-2 melanoma", "result": "> 100", "unit": "µM"}, {"measurement": "GI50", "setting": "SF-295 CNS", "result": 15.8, "unit": "µM"}, {"measurement": "TGI", "setting": "SF-295 CNS", "result": "> 100", "unit": "µM"}, {"measurement": "GI50", "setting": "CCRF-CEM leukemia", "result": 2.76, "unit": "µM"}, {"measurement": "TGI", "setting": "CCRF-CEM leukemia", "result": "> 100", "unit": "µM"}, {"measurement": "GI50", "setting": "MDA-MB-231 breast", "result": 24, "unit": "µM"}, {"measurement": "TGI", "setting": "MDA-MB-231 breast", "result": "> 100", "unit": "µM"}, {"measurement": "GI50", "setting": "SK-MEL-28 melanoma", "result": 17.4, "unit": "µM"}, {"measurement": "TGI", "setting": "SK-MEL-28 melanoma", "result": 45.5, "unit": "µM"}, {"measurement": "GI50", "setting": "786-0 renal", "result": 38.5, "unit": "µM"}, {"measurement": "TGI", "setting": "786-0 renal", "result": "> 100", "unit": "µM"}, {"measurement": "GI50", "setting": "MOLT-4 leukemia", "result": 3.13, "unit": "µM"}, {"measurement": "TGI", "setting": "MOLT-4 leukemia", "result": 10.2, "unit": "µM"}, {"measurement": "GI50", "setting": "UACC-62 melanoma", "result": 14.2, "unit": "µM"}, {"measurement": "TGI", "setting": "UACC-62 melanoma", "result": "> 100", "unit": "µM"}, {"measurement": "GI50", "setting": "ACHN renal", "result": 25.7, "unit": "µM"}, {"measurement": "TGI", "setting": "ACHN renal", "result": "> 100", "unit": "µM"}, {"measurement": "GI50", "setting": "EKVX NSCLC", "result": 25.1, "unit": "µM"}, {"measurement": "TGI", "setting": "EKVX NSCLC", "result": "> 100", "unit": "µM"}, {"measurement": "GI50", "setting": "DU-145 prostate", "result": 64.5, "unit": "µM"}, {"measurement": "TGI", "setting": "DU-145 prostate", "result": "> 100", "unit": "µM"}, {"measurement": "GI50", "setting": "MALME-3M melanoma", "result": 41, "unit": "µM"}, {"measurement": "TGI", "setting": "MALME-3M melanoma", "result": "> 100", "unit": "µM"}, {"measurement": "GI50", "setting": "SN12C renal", "result": 31.8, "unit": "µM"}, {"measurement": "TGI", "setting": "SN12C renal", "result": "> 100", "unit": "µM"}, {"measurement": "GI50", "setting": "SK-OV-3 ovarian", "result": 74.2, "unit": "µM"}, {"measurement": "TGI", "setting": "SK-OV-3 ovarian", "result": "> 100", "unit": "µM"}, {"measurement": "GI50", "setting": "SR leukemia", "result": 1.98, "unit": "µM"}, {"measurement": "TGI", "setting": "SR leukemia", "result": 5.25, "unit": "µM"}, {"measurement": "GI50", "setting": "COLO 205 colon", "result": 31.8, "unit": "µM"}, {"measurement": "TGI", "setting": "COLO 205 colon", "result": "> 100", "unit": "µM"}, {"measurement": "GI50", "setting": "M14 melanoma", "result": 23.6, "unit": "µM"}, {"measurement": "TGI", "setting": "M14 melanoma", "result": "> 100", "unit": "µM"}, {"measurement": "GI50", "setting": "K-562 leukemia", "result": 2.17, "unit": "µM"}, {"measurement": "TGI", "setting": "K-562 leukemia", "result": 6.9, "unit": "µM"}, {"measurement": "GI50", "setting": "NCI-H226 lung", "result": "> 100", "unit": "µM"}, {"measurement": "TGI", "setting": "NCI-H226 lung", "result": "> 100", "unit": "µM"}, {"measurement": "GI50", "setting": "HCT-116 colon", "result": 1.91, "unit": "µM"}, {"measurement": "TGI", "setting": "HCT-116 colon", "result": 5.71, "unit": "µM"}, {"measurement": "GI50", "setting": "UACC-257 melanoma", "result": 49.2, "unit": "µM"}, {"measurement": "TGI", "setting": "UACC-257 melanoma", "result": "> 100", "unit": "µM"}, {"measurement": "GI50", "setting": "T-47D breast", "result": 11.7, "unit": "µM"}, {"measurement": "TGI", "setting": "T-47D breast", "result": "> 100", "unit": "µM"}, {"measurement": "GI50", "setting": "NCI-H460 lung", "result": "> 100", "unit": "µM"}, {"measurement": "TGI", "setting": "NCI-H460 lung", "result": "> 100", "unit": "µM"}, {"measurement": "GI50", "setting": "OVCAR-8 ovarian", "result": 5.89, "unit": "µM"}, {"measurement": "TGI", "setting": "OVCAR-8 ovarian", "result": "> 100", "unit": "µM"}, {"measurement": "GI50", "setting": "U251 CNS", "result": 7.38, "unit": "µM"}, {"measurement": "TGI", "setting": "U251 CNS", "result": "> 100", "unit": "µM"}, {"measurement": "GI50", "setting": "HOP-62 NSCLC", "result": 24.9, "unit": "µM"}, {"measurement": "TGI", "setting": "HOP-62 NSCLC", "result": "> 100", "unit": "µM"}]}
